Laboratory results taken from patent publication US20240173440A1, “HIGH PURITY COPPER RADIOPHARMACEUTICAL COMPOSITIONS AND DIAGNOSTIC AND THERAPEUTIC USES THEREOF” (Nuclidium AG, priority 2022, published 2024).

Key:
[1] = Lipophilicity, log D by shake-flask method (1-octanol/PBS pH 7.4); type: physicochemical; conditions: shake-flask, Table 17, mean ± SD
Description: The radiotracer (1 μM) was added to a 50:50 pre-saturated mixture of 1-octanol and phosphate buffered saline (PBSpH 7.4). The solution was vortexed for 30 min and then centrifuged at 3,000 rpm to achieve a phase separation. Aliquots from each phase were collected and measured in a gamma-counter. The distribution coefficient was calculated as the average of the logarithmic values of the ratio between the radioactivity in the organic and the PBS phase.
Table 17. Lipophilicity expressed as the log distribution coefficient D (log D(Octanol/PBS pH7.4)) of ^61Cu-radiotracers versus ^68Ga-radiotracers (reference radiotracers).
In a pre-lubricated Eppendorf tube, a pre-saturated mixture of 500 μL of 1-octanol and 500 μL of PBS pH 7.4 (phosphate-buffered saline) were added. An aliquot of […] in 10 μL of the radioligand was added to this mixture, shaken for 30 min, and then centrifuged at 3000 rcf for 10 min to achieve phase separation. Aliquots of 100 μL were removed from the 1-octanol and from the PBS phases, and the activity was measured in a […]. The partition coefficient was calculated as the average log ratio value of the radioactivity in the organic fraction and PBS fraction.

LNCaP xenografts [2] = test: Quantitative biodistribution in LNCaP xenografted mice; type: in vivo; conditions: LNCaP xenografts
Description: (§2) The mice were randomly distributed in groups and euthanized at 1 and at 4 hours post-injection. The organs of interest were collected, rinsed, blotted, weighed and counted in a gamma counter. The results are expressed as percentage of injected activity per gram (% IA/g), representing the mean±standard deviation of n=4-8 mice per group and they were obtained by extrapolation from counts of an aliquot taken from the injected solution as standard.
The biodistribution of the [^61Cu]Cu-NODAGA radiotracers was compared with the reference compounds used in patients under identical experimental conditions. The mice were randomly distributed in groups, injected with the radiotracer under investigation and euthanized at 1 and at 4 hours post-injection of the radiotracers under investigation. The organs of interest were collected, rinsed, blotted, weighed and counted in a gamma counter. The results are expressed as percentage of injected activity per gram (% IA/g), representing the mean±standard deviation of all mice per group and they were obtained by extrapolation from counts of an aliquot taken from the injected solution as standard.

LNCaP xenografts [3] = test: PET/CT imaging in LNCaP xenografted mice; type: in vivo; conditions: LNCaP-xenografted nude mice
Description: (§1) Tumor xenografted mice were injected intravenously into the tail vein with the tested radiotracer. […] Mice were anesthetized with 1.5% isoflurane and dynamic PET scans were acquired during 1 hour upon injection of the radiotracer. The mice were euthanized by CO2 at 4 hours p.i., the bladder was mechanically emptied, and static PET scans were acquired for 30 min. PET images were acquired using the R-CUBE PET scanner system (MOLECUBES, Gent, Belgium) and they were decay corrected and reconstructed with the VivoQuant software version 4.0. The CT was imaged supine, headfirst, using the NanoSPECT/CT™ scanner (Bioscan Inc.). Topograms and helical CT scans of the whole mouse were first acquired using the following parameters: X-ray tube current: 177 μA, X-ray tube voltage 45 kVp, 90 seconds and 180 frames per rotation, pitch 1. CT images were reconstructed using CTReco (version r1.146), with a standard filtered back projection algorithm (exact cone beam) and post-filtered (RamLak, 100% frequency cut-off), resulting in a pixel size of 0.2 mm. Co-registered PET/CT images were visualized using maximum intensity projection (MIP) with InVivoScope (version 1.43, Bioscan Inc.). The results are presented in the Examples that follow.

PSMA = PSMA (Homo sapiens (Human), UniProt Q04609); test: Specificity study: PET/CT in LNCaP xenografts after blocking with 2-PMPA, and free [61Cu]CuCl2; type: in vivo, mice; conditions: PET/CT 1 hour p.i.
Description: The specificity of [^61Cu]Cu-NODAGA-PSMA-I&T and [^61Cu]Cu-DOTAGA-PSMA-I&T was assessed in LNCaP xenografted mice, firstly injected with 1.3 μmol (300 μg) of 2-Phosphonomethyl pentanedioic acid (2-PMPA) as the blocking agent, followed by the injection of the radiotracer e.g. [^61Cu]Cu-DOTAGA-PSMA-I&T (100 μL/[…]/4-8 MBq) or [^61Cu]Cu-NODAGA-PSMA-I&T (100 μL/[…]/4-8 MBq). One-hour post injection PET/CT images were acquired as described in Example 8. In addition, PET/CT image of xenografts after injection of [^61Cu]CuCl2 (100 μL/7 MBq) was acquired in order to assess the total body distribution of free (uncomplexed)^61Cu. The results are shown in FIG. 10, panels A and B. L=liver; K=kidneys; T=tumor; Bl=bladder; I=intestine.

LNCaP cells = test: In vitro cellular uptake (cell surface and internalized fractions) in LNCaP cells; type: cell-based; conditions: for Cell surface fraction / Internalized fraction: specific uptake
Description: The cellular uptake was studied in vitro using intact cells seeded in 6-well plates overnight. On the day of the experiment, the cells were washed and incubated with each of the exemplified [^61Cu]Cu-radiotracer at different time points, either alone or in the presence of a blocking agent to distinguish between specific and non-specific uptake. At each investigated time point, the medium containing the unbound (free) radiotracer was removed, followed by two washing steps with ice-cold phosphate-buffered saline. The cells were then treated 2×5 min with ice-cold glycine solution (0.05 M, pH 2.8) to detach the cell surface-bound radiotracer (acid released). Afterwards, the cells containing the internalized radiotracer were detached with 1 M NaOH at 37° C. and collected for measurement. The amount of specific cell surface-bound and internalized radiotracer is expressed as percentage of the total applied activity, after subtracting the non-specific values.
2-(phosphonomethyl)-pentanedioic acid (2-PMPA, 10 μM) was used to determine non-specific binding (FIG. 14).
Cellular uptake and distribution between cell surface (cell membrane bound) and internalized fractions of ^61Cu-labeled PSMA-I&T constructs versus their ^68Ga counterparts (Table 19). The values are expressed as % of the applied activity and refer to the specific uptake calculated after subtracting the non-specific values (measured in the presence of 10 μM 2-PMPA) from the total values (specific=total−non specific).

HEK-SST2 xenografts = test: PET/CT imaging in HEK-SST2 xenografted mice; type: in vivo; conditions: 0-60 min and 240 min
Description: as §1

in vivo = conditions: iv, 20 umol, total radioactivity
Description: The tumors were allowed to grow for 1-3 weeks before commencement of the experiments.
as §2
The mice were randomly distributed in groups, injected with the radiotracer under investigation and euthanized at 1 and at 4 hours post-injection of the radiotracers under investigation. The organs of interest were collected, rinsed, blotted, weighed and counted in a gamma counter. The results are expressed as percentage of injected activity per gram (% IA/g), representing the mean±standard deviation of all mice per group and they were obtained by extrapolation from counts of an aliquot taken from the injected solution as standard.
The mice were randomly distributed in groups and euthanized at 4 hours post-injection. The organs of interest were collected, rinsed, blotted, weighed, and their respective radioactivity was counted in a gamma counter.

Sequence of PSMA (Q04609 whole entry): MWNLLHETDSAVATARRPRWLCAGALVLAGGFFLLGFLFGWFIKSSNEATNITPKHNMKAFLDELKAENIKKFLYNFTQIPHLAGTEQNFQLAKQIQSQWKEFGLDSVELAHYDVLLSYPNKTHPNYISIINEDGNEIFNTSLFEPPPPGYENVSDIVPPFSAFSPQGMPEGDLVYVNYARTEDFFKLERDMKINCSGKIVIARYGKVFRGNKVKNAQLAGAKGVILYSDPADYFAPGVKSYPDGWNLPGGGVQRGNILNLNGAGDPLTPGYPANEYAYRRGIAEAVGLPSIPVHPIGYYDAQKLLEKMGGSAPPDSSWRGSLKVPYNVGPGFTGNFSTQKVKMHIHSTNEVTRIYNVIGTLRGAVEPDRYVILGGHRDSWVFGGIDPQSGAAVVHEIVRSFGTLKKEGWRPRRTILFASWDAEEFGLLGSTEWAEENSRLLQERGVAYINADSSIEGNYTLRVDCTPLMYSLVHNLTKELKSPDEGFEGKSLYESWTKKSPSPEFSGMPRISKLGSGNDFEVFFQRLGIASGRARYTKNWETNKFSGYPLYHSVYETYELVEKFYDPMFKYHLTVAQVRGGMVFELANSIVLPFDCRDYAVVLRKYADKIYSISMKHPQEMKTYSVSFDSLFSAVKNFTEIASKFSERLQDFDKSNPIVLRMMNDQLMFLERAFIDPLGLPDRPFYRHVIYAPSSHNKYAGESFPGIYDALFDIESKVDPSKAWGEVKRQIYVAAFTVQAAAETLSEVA

## O=C([O-])CN1CCN(CC(=O)[O-])CCN(C(CCC(=O)N[C@H](Cc2ccc(O)c(I)c2)C(=O)N[C@H](Cc2ccccc2)C(=O)N[C@H](CCCCNC(=O)CCCCCCC(=O)NCCCC[C@H](NC(=O)N[C@@H](CCC(=O)O)C(=O)O)C(=O)O)C(=O)O)C(=O)O)CCN(CC(=O)O)CC1.[61Cu+2] (stereo partly shown) [[^61Cu]Cu-DOTAGA-PSMA-I&T]
[1]
  log D(O/PBS pH 7.4): −2.69±0.44
LNCaP xenografts [2]; 1 hour p.i.
  Biodistribution Adrenal: 9.35 ± 1.50 % IA/g
  Biodistribution Blood: 2.06 ± 0.24 % IA/g
  Biodistribution Bone: 2.31 ± 0.36 % IA/g
  Biodistribution Heart: 3.73 ± 0.32 % IA/g
  Biodistribution Intestine: 8.95 ± 0.62 % IA/g
  Biodistribution Kidneys: 57 ± 6 % IA/g
  Biodistribution LNCaP-tumor: 6.06 ± 0.25 % IA/g
  Biodistribution Liver: 19.3 ± 3.3 % IA/g
  Biodistribution Lung: 6.35 ± 0.35 % IA/g
  Biodistribution Muscle: 1.00 ± 0.05 % IA/g
  Biodistribution Pancreas: 2.82 ± 0.67 % IA/g
  Biodistribution Salivary glands: 5.60 ± 1.39 % IA/g
  Biodistribution Spleen: 4.64 ± 1.35 % IA/g
  Biodistribution Stomach: 7.77 ± 0.62 % IA/g
  Ratio Tumor/Blood: 2.97 ± 0.23
  Ratio Tumor/Kidney: 0.11 ± 0.01
  Ratio Tumor/Liver: 0.32 ± 0.05
  Ratio Tumor/Muscles: 6.08 ± 0.22
LNCaP xenografts [2]; 4 hours p.i.
  Biodistribution Adrenal: 6.46 ± 2.38 % IA/g
  Biodistribution Blood: 1.12 ± 0.24 % IA/g
  Biodistribution Bone: 1.69 ± 0.25 % IA/g
  Biodistribution Heart: 2.08 ± 0.33 % IA/g
  Biodistribution Intestine: 7.74 ± 1.76 % IA/g
  Biodistribution Kidneys: 22.1 ± 2.2 % IA/g
  Biodistribution LNCaP-tumor: 4.88 ± 0.63 % IA/g
  Biodistribution Liver: 13.9 ± 2.2 % IA/g
  Biodistribution Lung: 4.67 ± 0.76 % IA/g
  Biodistribution Muscle: 0.48 ± 0.08 % IA/g
  Biodistribution Pancreas: 1.71 ± 0.23 % IA/g
  Biodistribution Salivary glands: 2.31 ± 0.19 % IA/g
  Biodistribution Spleen: 2.95 ± 0.73 % IA/g
  Biodistribution Stomach: 7.10 ± 0.97 % IA/g
  Ratio Tumor/Blood: 4.56 ± 1.49
  Ratio Tumor/Kidney: 0.22 ± 0.04
  Ratio Tumor/Liver: 0.35 ± 0.05
  Ratio Tumor/Muscles: 10.5 ± 2.8
LNCaP xenografts [2]
  accumulation in tumor and target-positive tissues: high accumulation in PSMA-positive (LNCaP) tumor and PSMA-positive tissues
LNCaP xenografts [3]
  distribution on PET/CT images: lower tumor, but also lower kidney uptake
PSMA
  uptake in PSMA-positive tumors and kidneys in xenografts pre-injected with 2-PMPA: significantly lower uptake
LNCaP cells; 5 min
  Cell surface fraction: 3.7 ± 0.5 % of the applied activity
  Internalized fraction: 0.7 ± 0.1 % of the applied activity
LNCaP cells; 15 min
  Cell surface fraction: 8.1 ± 0.7 % of the applied activity
  Internalized fraction: 2.8 ± 0.2 % of the applied activity
LNCaP cells; 30 min
  Cell surface fraction: 11.6 ± 1.0 % of the applied activity
  Internalized fraction: 6.2 ± 0.5 % of the applied activity
LNCaP cells; 60 min
  Cell surface fraction: 13.4 ± 0.8 % of the applied activity
  Internalized fraction: 13.3 ± 0.5 % of the applied activity
LNCaP cells; 120 min
  Cell surface fraction: 14.7 ± 1.0 % of the applied activity
  Internalized fraction: 21.3 ± 0.9 % of the applied activity
LNCaP cells; after 2h at 37° C.
  PSMA-mediated cellular uptake: approx. 35%
  part of the cellular uptake being internalized: 50-60%

## C[C@@H](O)[C@@H]1NC(=O)[C@H](CCCCN)NC(=O)[C@@H](Cc2ccc(NC(N)=O)cc2)NC(=O)[C@H](Cc2ccc(O)cc2)NC(=O)[C@H](NC(=O)[C@H](Cc2ccc(Cl)cc2)NC(=O)CC[C@H](C(=O)O)N2CCN(CC(=O)O)CCN(CC(=O)O)CC2)CSSC[C@@H](C(=O)N[C@H](Cc2ccc(O)cc2)C(N)=O)NC1=O [[^61Cu]Cu-(R)-NODAGA-LM3, metal not drawn]
HEK-SST2 xenografts
  distribution pattern on PET/CT: same distribution pattern
In vivo; athymic nude Foxn1+Foxn1+, mouse, Biodistribution Adrenal
  tissue uptake at 4 h: 0.61 ± 0.18 %ID/g
In vivo; athymic nude Foxn1+Foxn1+, mouse, Biodistribution Blood
  tissue uptake at 4 h: 0.1 ± 0.01 %ID/g
In vivo; athymic nude Foxn1+Foxn1+, mouse, Biodistribution Heart
  tissue uptake at 4 h: 0.17 ± 0.02 %ID/g
In vivo; athymic nude Foxn1+Foxn1+, mouse, Biodistribution Intestine
  tissue uptake at 4 h: 0.58 ± 0.13 %ID/g
In vivo; athymic nude Foxn1+Foxn1+, mouse, Biodistribution Liver
  tissue uptake at 4 h: 0.73 ± 0.06 %ID/g
In vivo; athymic nude Foxn1+Foxn1+, mouse, Biodistribution Lung
  tissue uptake at 4 h: 0.42 ± 0.05 %ID/g
In vivo; athymic nude Foxn1+Foxn1+, mouse, Biodistribution Pancreas
  tissue uptake at 4 h: 0.44 ± 0.24 %ID/g
In vivo; athymic nude Foxn1+Foxn1+, mouse, Biodistribution Spleen
  tissue uptake at 4 h: 0.17 ± 0.02 %ID/g
In vivo; athymic nude Foxn1+Foxn1+, mouse, Biodistribution Stomach
  tissue uptake at 4 h: 0.78 ± 0.14 %ID/g
In vivo; athymic nude Foxn1, mouse, Biodistribution Bone
  tissue uptake at 4 h: 0.42 ± 0.12 %ID/g
In vivo; athymic nude Foxn1, mouse, Biodistribution Kidneys
  tissue uptake at 4 h: 3.87 ± 0.51 %ID/g
In vivo; athymic nude Foxn1, mouse, Biodistribution Muscle
  tissue uptake at 4 h: 0.1 ± 0.02 %ID/g
In vivo; athymic nude Foxn1, mouse, Biodistribution Pituitary
  tissue uptake at 4 h: 3.64 ± 0.31 %ID/g
In vivo; athymic nude Foxn1, mouse, Biodistribution SSTR2-tumor
  tissue uptake at 4 h: 19 ± 2.11 %ID/g
